Where “and” joins values, the source holds several entries; their conditions need not be identical. Equal values may be shown once. HELM strings list units from the 5' end as sugar, base in round brackets, then linkage (d deoxyribose, r ribose, m 2'-O-methyl, p phosphodiester). Methylation of C is not given here. [moe] = 2'-O-(2-methoxyethyl) (MOE); [cEt] = constrained ethyl (cEt); [sp] = phosphorothioate linkage
Target: HBV
Details: ASO

Row | Substance | target mRNA inhibition (HepG2, 0.0092593 µM) | target mRNA inhibition (HepG2, 0.0277778 µM) | target mRNA inhibition (HepG2, 0.07 µM) | target mRNA inhibition (HepG2, 0.0833333 µM) | target mRNA inhibition (HepG2, 0.25 µM)
1 | RNA1{[moe](G)[sp].[cEt](C)[sp].[cEt](A)[sp].d(C)[sp].d(T)[sp].d(A)[sp].d(G)[sp].d(T)[sp].d(A)[sp].d(A)[sp].d(A)[sp].d(C)[sp].d(T)[sp].[cEt](G)[sp].[cEt](A)[sp].[moe](G)}$$$$V2.0 | 8% | 24% | 73% and 81% | 65% | 87%
2 | RNA1{[moe](A)[sp].[cEt](C)[sp].[cEt](T)[sp].d(A)[sp].d(G)[sp].d(T)[sp].d(A)[sp].d(A)[sp].d(A)[sp].d(C)[sp].d(T)[sp].d(G)[sp].d(A)[sp].[cEt](G)[sp].[cEt](C)[sp].[moe](C)}$$$$V2.0 | 24% | 55% | 77% and 85% | 74% | 88%
3 | RNA1{[moe](C)[sp].[moe](C)[sp].[moe](A)[sp].[moe](A)[sp].d(T)[sp].d(T)[sp].d(T)[sp].d(A)[sp].d(T)[sp].d(G)[sp].d(C)[sp].d(C)[sp].d(T)[sp].[moe](A)[sp].[moe](C)[sp].[moe](A)}$$$$V2.0 | – | – | 24% and 8% | – | –
4 | RNA1{[moe](G)[sp].[moe](A)[sp].[moe](A)[sp].d(C)[sp].d(T)[sp].d(G)[sp].d(G)[sp].d(A)[sp].d(G)[sp].d(C)[sp].d(C)[sp].d(A)[sp].d(C)[sp].[cEt](C)[sp].[cEt](A)[sp].[cEt](G)}$$$$V2.0 | – | – | 59% and 58% | – | –
5 | RNA1{[moe](G)[sp].[cEt](C)[sp].d(A)[sp].d(G)[sp].d(T)[sp].d(A)[sp].d(T)[sp].d(G)[sp].d(G)[sp].d(A)[sp].d(T)[sp].d(C)[sp].[cEt](G)[sp].[moe](G)[sp].[cEt](C)[sp].[moe](A)}$$$$V2.0 | 25% | 44% | 83% and 90% | 77% | 89%
6 | RNA1{[moe](T)[sp].[moe](T)[sp].[moe](A)[sp].[moe](T)[sp].d(G)[sp].d(C)[sp].d(C)[sp].d(T)[sp].d(A)[sp].d(C)[sp].d(A)[sp].d(G)[sp].d(C)[sp].[moe](C)[sp].[moe](T)[sp].[moe](C)}$$$$V2.0 | – | – | 42% and 46% | – | –
7 | RNA1{[moe](A)[sp].[moe](G)[sp].[moe](A)[sp].[moe](G)[sp].d(G)[sp].d(T)[sp].d(G)[sp].d(A)[sp].d(A)[sp].d(G)[sp].d(C)[sp].d(G)[sp].d(A)[sp].[moe](A)[sp].[moe](G)[sp].[moe](T)[sp].[moe](G)}$$$$V2.0 | – | – | 50% and 47% | – | –
8 | RNA1{[moe](T)[sp].[cEt](G)[sp].[cEt](A)[sp].d(G)[sp].d(G)[sp].d(C)[sp].d(A)[sp].d(T)[sp].d(A)[sp].d(G)[sp].d(C)[sp].d(A)[sp].d(G)[sp].[cEt](C)[sp].[cEt](A)[sp].[moe](G)}$$$$V2.0 | – | – | 68% and 61% | – | –
9 | RNA1{[moe](T)[sp].[moe](C)[sp].[moe](C)[sp].[moe](G)[sp].[moe](C)[sp].d(A)[sp].d(G)[sp].d(T)[sp].d(A)[sp].d(T)[sp].d(G)[sp].d(G)[sp].d(A)[sp].d(T)[sp].[moe](C)[sp].[moe](G)[sp].[moe](G)}$$$$V2.0 | – | – | 77% and 68% | – | –
10 | RNA1{[moe](G)[sp].[cEt](A)[sp].d(G)[sp].d(G)[sp].d(T)[sp].d(G)[sp].d(A)[sp].d(A)[sp].d(G)[sp].d(C)[sp].d(G)[sp].d(A)[sp].[cEt](A)[sp].[moe](G)[sp].[cEt](T)[sp].[moe](G)}$$$$V2.0 | 17% | 40% | 75% and 82% | 65% | 79%
11 | RNA1{[moe](C)[sp].[moe](T)[sp].[moe](G)[sp].[moe](G)[sp].[moe](A)[sp].d(G)[sp].d(C)[sp].d(C)[sp].d(A)[sp].d(C)[sp].d(C)[sp].d(A)[sp].d(G)[sp].d(C)[sp].[moe](A)[sp].[moe](G)}$$$$V2.0 | – | – | 46% and 53% | – | –
12 | RNA1{[moe](G)[sp].[cEt](T)[sp].[cEt](C)[sp].d(C)[sp].d(A)[sp].d(C)[sp].d(C)[sp].d(A)[sp].d(C)[sp].d(G)[sp].d(A)[sp].d(G)[sp].d(T)[sp].[cEt](C)[sp].[cEt](T)[sp].[moe](A)}$$$$V2.0 | – | – | 55% and 56% | – | –
13 | RNA1{[moe](G)[sp].[moe](A)[sp].[moe](A)[sp].d(C)[sp].d(C)[sp].d(A)[sp].d(C)[sp].d(T)[sp].d(G)[sp].d(A)[sp].d(A)[sp].d(C)[sp].[moe](A)[sp].[moe](A)[sp].[moe](A)[sp].[moe](T)[sp].[moe](G)}$$$$V2.0 | – | – | 39% and 47% | – | –
14 | RNA1{[moe](G)[sp].[moe](A)[sp].[moe](A)[sp].d(G)[sp].d(C)[sp].d(G)[sp].d(A)[sp].d(A)[sp].d(G)[sp].d(T)[sp].d(G)[sp].d(C)[sp].[moe](A)[sp].[moe](C)[sp].[moe](A)[sp].[moe](C)}$$$$V2.0 | – | – | 52% and 50% | – | –
15 | RNA1{[moe](C)[sp].[moe](G)[sp].[moe](C)[sp].[moe](A)[sp].d(G)[sp].d(T)[sp].d(A)[sp].d(T)[sp].d(G)[sp].d(G)[sp].d(A)[sp].d(T)[sp].d(C)[sp].[moe](G)[sp].[moe](G)[sp].[moe](C)}$$$$V2.0 | – | – | 80% and 68% | – | –
16 | RNA1{[moe](A)[sp].[moe](C)[sp].[moe](G)[sp].d(G)[sp].d(G)[sp].d(C)[sp].d(A)[sp].d(A)[sp].d(C)[sp].d(A)[sp].d(T)[sp].d(A)[sp].[moe](C)[sp].[moe](C)[sp].[moe](T)[sp].[moe](T)[sp].[moe](G)}$$$$V2.0 | – | – | 43% and 34% | – | –
17 | RNA1{[moe](A)[sp].[cEt](A)[sp].[cEt](G)[sp].d(C)[sp].d(G)[sp].d(A)[sp].d(A)[sp].d(G)[sp].d(T)[sp].d(G)[sp].d(C)[sp].d(A)[sp].d(C)[sp].[cEt](A)[sp].[cEt](C)[sp].[moe](G)}$$$$V2.0 | 28% | 57% | 80% and 85% | 80% | 89%
18 | RNA1{[moe](T)[sp].[moe](G)[sp].d(A)[sp].d(A)[sp].d(G)[sp].d(C)[sp].d(G)[sp].d(A)[sp].d(A)[sp].d(G)[sp].d(T)[sp].[moe](G)[sp].[moe](C)[sp].[moe](A)[sp].[moe](C)[sp].[moe](A)[sp].[moe](C)}$$$$V2.0 | – | – | 81% and 79% | – | –
19 | RNA1{[moe](G)[sp].[moe](A)[sp].[moe](A)[sp].[moe](G)[sp].[moe](C)[sp].[moe](G)[sp].d(A)[sp].d(A)[sp].d(G)[sp].d(T)[sp].d(G)[sp].d(C)[sp].d(A)[sp].d(C)[sp].d(A)[sp].[moe](C)[sp].[moe](G)}$$$$V2.0 | – | – | 87% and 66% | – | –
20 | RNA1{[moe](G)[sp].[moe](C)[sp].[moe](A)[sp].[moe](G)[sp].[moe](A)[sp].[moe](G)[sp].d(G)[sp].d(T)[sp].d(G)[sp].d(A)[sp].d(A)[sp].d(G)[sp].d(C)[sp].d(G)[sp].d(A)[sp].[moe](A)[sp].[moe](G)}$$$$V2.0 | – | – | 65% and 68% | – | –
21 | RNA1{[moe](T)[sp].[moe](C)[sp].[moe](C)[sp].[moe](G)[sp].d(C)[sp].d(A)[sp].d(G)[sp].d(T)[sp].d(A)[sp].d(T)[sp].d(G)[sp].d(G)[sp].d(A)[sp].[moe](T)[sp].[moe](C)[sp].[moe](G)}$$$$V2.0 | – | – | 71% and 73% | – | –
22 | RNA1{[moe](T)[sp].[moe](G)[sp].[moe](A)[sp].d(G)[sp].d(G)[sp].d(C)[sp].d(A)[sp].d(T)[sp].d(A)[sp].d(G)[sp].d(C)[sp].d(A)[sp].[moe](G)[sp].[moe](C)[sp].[moe](A)[sp].[moe](G)[sp].[moe](G)}$$$$V2.0 | – | – | 70% and 56% | – | –
23 | RNA1{[moe](G)[sp].[moe](A)[sp].[moe](G)[sp].d(G)[sp].d(C)[sp].d(A)[sp].d(T)[sp].d(A)[sp].d(G)[sp].d(C)[sp].d(A)[sp].d(G)[sp].d(C)[sp].[moe](A)[sp].[moe](G)[sp].[moe](G)}$$$$V2.0 | 4% | 24% | – | 49% | 67%
24 | RNA1{[moe](A)[sp].[moe](G)[sp].[moe](G)[sp].[moe](A)[sp].d(G)[sp].d(T)[sp].d(T)[sp].d(C)[sp].d(C)[sp].d(G)[sp].d(C)[sp].d(A)[sp].d(G)[sp].[moe](T)[sp].[moe](A)[sp].[moe](T)[sp].[moe](G)}$$$$V2.0 | – | – | 74% and 50% | – | –
25 | RNA1{[moe](G)[sp].[moe](T)[sp].d(T)[sp].d(C)[sp].d(C)[sp].d(G)[sp].d(C)[sp].d(A)[sp].d(G)[sp].d(T)[sp].d(A)[sp].[moe](T)[sp].[moe](G)[sp].[moe](G)[sp].[moe](A)[sp].[moe](T)[sp].[moe](C)}$$$$V2.0 | – | – | 45% and 58% | – | –
26 | RNA1{[moe](A)[sp].[moe](C)[sp].[moe](C)[sp].d(A)[sp].d(C)[sp].d(T)[sp].d(G)[sp].d(A)[sp].d(A)[sp].d(C)[sp].d(A)[sp].d(A)[sp].d(A)[sp].[cEt](T)[sp].[cEt](G)[sp].[cEt](G)}$$$$V2.0 | – | – | 65% and 71% | – | –
27 | RNA1{[moe](C)[sp].[cEt](A)[sp].d(C)[sp].d(T)[sp].d(G)[sp].d(A)[sp].d(A)[sp].d(C)[sp].d(A)[sp].d(A)[sp].d(A)[sp].d(T)[sp].[cEt](G)[sp].[moe](G)[sp].[cEt](C)[sp].[moe](A)}$$$$V2.0 | 5% | 26% | – | 64% | 82%
28 | RNA1{[moe](G)[sp].[cEt](A)[sp].[cEt](A)[sp].d(C)[sp].d(T)[sp].d(G)[sp].d(G)[sp].d(A)[sp].d(G)[sp].d(C)[sp].d(C)[sp].d(A)[sp].d(C)[sp].[cEt](C)[sp].[cEt](A)[sp].[moe](G)}$$$$V2.0 | – | – | 65% and 51% | – | –
29 | RNA1{[moe](A)[sp].[moe](A)[sp].d(C)[sp].d(C)[sp].d(A)[sp].d(C)[sp].d(T)[sp].d(G)[sp].d(A)[sp].d(A)[sp].d(C)[sp].[moe](A)[sp].[moe](A)[sp].[moe](A)[sp].[moe](T)[sp].[moe](G)[sp].[moe](G)}$$$$V2.0 | – | – | 67% and 59% | – | –
